Measurements: patent publication US10400008B2, “Modulators of the SRC-kinase activity for preventing or treating metastatic cancer” (Cancer Research Technology Limited, priority 2013, dated 2019)
Several values for one entry are separate records, joined by “and”; a condition that tells them apart may be missing. Equal values may be shown once.

How the values were obtained:
HT1080 cells = assay: BrdU incorporation (DNA synthesis) in HT1080 cells; type: cell-based, human; details: 18 h, EGF 100 ng/ml, peptide 1 nM
Procedure: Androgen challenging of these cells neither induces AR nuclear translocation, nor enhances DNA synthesis while robustly increases cell motility. In A, quiescent HT1080 cells were transfected with 3416 or 3424 ARE-luc constructs with or without hAR expressing plasmid. Details of these procedures have been described in Methods. Cells were left un-stimulated or stimulated for 18 h with 10 nM R1881. The luciferase activity was assayed, normalized using beta-gal as an internal control, and expressed as fold induction. Means and SEM are shown; n represents the number of experiments. […] In B, quiescent HT1080 cells on coverslips were left untreated or treated for 60 min with 10 nM R1881. Cells were analysed by IF for AR (left images) or Hoechst (right images). Images are representative of three independent experiments. […] In C, BrdU incorporation in cells on coverslips was analysed and expressed as in FIG. 2. In D, the number of migrated cells was evaluated and expressed as relative increase. […]
FIG. 3: Inhibition by S1 peptide of AR/Src complex, Src activation and DNA synthesis triggered by EGF in HT1080 cells. […] Lower section in A, lysates were immune-precipitated with anti EGFR Ab and proteins in immune-complexes were detected using antibodies against the indicated proteins. […] After in vivo pulse with BrdU (100 μM; Sigma), BrdU incorporation was analyzed by IF and expressed as % of total nuclei. […]

MMP-9 = MMP-9 release from HT1080 cells (fluorescent AK411 kit); type: cell-based, human; details: 6 h, peptide 1 nM
Procedure: FIG. 4: The S1 peptide inhibits EGF-stimulated migration and MMP-9 secretion in HT1080 cells. Quiescent HT1080 cells were used. In A, cells were left untreated or treated for 6 h with the indicated compounds. MMP-9 release was assayed as described in Methods. In B, cells were allowed to migrate for 6 h in Trans-well filters in the absence or presence of the indicated compounds. Migrated cells were stained and counted as reported in Methods. In A and B, data were expressed as relative increase. Mean and SEM is shown. n represents the number of experiments. In C, cells were wounded and then left unstimulated or stimulated for 6 h with the indicated compounds. Contrast-phase images are representative of 3 different experiments, each performed in duplicate.
BrdU incorporation, migration and wound healing analysis were done as described (3, 11). MMP-9 activity was assayed (12, 13), using the fluorescent AK411 kit (BIOMOL Res. Lab.).

[1] = Body weight in the orthotopic PC-3 prostate cancer model
Procedure: Mice were weighed twice a week, and after 4 weeks, mice were sacrificed. Gross necropsy was performed to all animals at the end of the study, and all macroscopic signs were recorded. Volume of the prostate tumors was measured and prostate as well as prostate draining lymph nodes were collected for histology. The number of metastasis in lymph nodes was determined under microscope.
The animals were weighed twice a week. For the last 5 days of the study, the animals were observed daily to monitor the progression of disease. Appearance of any clinical signs was recorded on follow-up forms. Analgesic was given if needed.
At the end of the study, the animals were weighed and sacrificed with cervical dislocation under anesthesia. Necropsy was carried out in all animals. Macroscopic findings were recorded on the follow-up forms. Tissue samples from prostate with tumor and lymph nodes were collected for histology and number of metastases in lymph nodes was determined.
Statistical analysis was performed with R: A Language and Environment for Statistical Computing (version 2.14.2; R Development Core Team, Vienna, Austria). The mean and standard deviation of the body weights and the tumor volumes at sacrifice were determined. Normality of the distributions and homogeneity of variance were checked before further analyses. In case of violating these assumptions, either log transformation or other appropriate transformation (e.g. square root, reciprocal) was applied. If the assumptions were fulfilled as such or after transformation, one-way ANOVA was used to study if the values obtained between the groups were statistically different (with p<0.05). If differences were found, Tukey's HSD test was used for pairwise comparison between all groups. If the assumptions were not fulfilled even after the transformations described above, the non-parametric Kruskal-Wallis test followed by Mann-Whitney U-test were used.
We have studied the effects of Val201 on cell proliferation of the ER positive human prostate cancer cell line PC-3 in vitro and growth and metastatis in vivo in an orthotopic xenograft model. The proliferation effects were studied for 100 pM, 1 nM, 10 nM, 100 nM and 1 μM concentrations of VAL201 by measuring WST-1 values at days 3, 5, 7 and 9. Groups with vehicle and 1 μM gemcitabine as reference compound were included in the study. […] PC-3 cells in Matrigel were inoculated orthotopically into the prostate. Subcutaneous dosing was started at day 1 and continued daily for 28 days. The mice were weighed twice a week. Orthotopic tumors were measured by calliper and the prostate and the regional lymph nodes were harvested at sacrifice. Metastases in lymph nodes were determined from HE stained paraffin sections.

## Ac-PPPHPHARIK-NH2 [VAL001]
HT1080 cells
  EGF-triggered DNA synthesis (BrdU incorporation): inhibits
MMP-9
  EGF-stimulated MMP-9 secretion: inhibits
[1]; 0.004 mg/kg, mean
  Body weight at sacrifice relative to maximum weight: 96.6
[1]; 0.004 mg/kg, single animals
  Body weight at sacrifice relative to maximum weight: 95.1 (2×) and 100.0 and 93.8 and 95.7 and 97.9 and 94.1 and 97.8 and 97.6 and 99.2
[1]; 0.04 mg/kg, mean
  Body weight at sacrifice relative to maximum weight: 96.1
[1]; 0.04 mg/kg, single animals
  Body weight at sacrifice relative to maximum weight: 100.0 and 96.1 and 94.9 and 96.7 and 93.8 and 93.0 and 94.8 and 98.0 (2×) and 96.2
[1]; 0.4 mg/kg, mean
  Body weight at sacrifice relative to maximum weight: 97.6
[1]; 0.4 mg/kg, single animals
  Body weight at sacrifice relative to maximum weight: 98.2 and 91.1 and 96.6 and 90.7 and 100.0 (4×) and 99.5 and 99.6
[1]; 4 mg/kg, mean
  Body weight at sacrifice relative to maximum weight: 95.3
[1]; 4 mg/kg, single animals
  Body weight at sacrifice relative to maximum weight: 100.0 and 90.8 and 86.2 and 95.7 and 96.8 and 95.5 and 98.2 and 98.4 and 98.0 and 93.3
